# Legend:
# Experiment in all cases: biochemical
# Design in all cases: radiometric methyltransferase selectivity assay with tritiated SAM, per cent activity
# Settings in all cases: read-out: % of control remaining
# GLP = target: T1, GLP (Homo sapiens, UniProt Q9H9B1)
# T1 construct: gene EHMT1
# T1 sequence (Q9H9B1 1-1298): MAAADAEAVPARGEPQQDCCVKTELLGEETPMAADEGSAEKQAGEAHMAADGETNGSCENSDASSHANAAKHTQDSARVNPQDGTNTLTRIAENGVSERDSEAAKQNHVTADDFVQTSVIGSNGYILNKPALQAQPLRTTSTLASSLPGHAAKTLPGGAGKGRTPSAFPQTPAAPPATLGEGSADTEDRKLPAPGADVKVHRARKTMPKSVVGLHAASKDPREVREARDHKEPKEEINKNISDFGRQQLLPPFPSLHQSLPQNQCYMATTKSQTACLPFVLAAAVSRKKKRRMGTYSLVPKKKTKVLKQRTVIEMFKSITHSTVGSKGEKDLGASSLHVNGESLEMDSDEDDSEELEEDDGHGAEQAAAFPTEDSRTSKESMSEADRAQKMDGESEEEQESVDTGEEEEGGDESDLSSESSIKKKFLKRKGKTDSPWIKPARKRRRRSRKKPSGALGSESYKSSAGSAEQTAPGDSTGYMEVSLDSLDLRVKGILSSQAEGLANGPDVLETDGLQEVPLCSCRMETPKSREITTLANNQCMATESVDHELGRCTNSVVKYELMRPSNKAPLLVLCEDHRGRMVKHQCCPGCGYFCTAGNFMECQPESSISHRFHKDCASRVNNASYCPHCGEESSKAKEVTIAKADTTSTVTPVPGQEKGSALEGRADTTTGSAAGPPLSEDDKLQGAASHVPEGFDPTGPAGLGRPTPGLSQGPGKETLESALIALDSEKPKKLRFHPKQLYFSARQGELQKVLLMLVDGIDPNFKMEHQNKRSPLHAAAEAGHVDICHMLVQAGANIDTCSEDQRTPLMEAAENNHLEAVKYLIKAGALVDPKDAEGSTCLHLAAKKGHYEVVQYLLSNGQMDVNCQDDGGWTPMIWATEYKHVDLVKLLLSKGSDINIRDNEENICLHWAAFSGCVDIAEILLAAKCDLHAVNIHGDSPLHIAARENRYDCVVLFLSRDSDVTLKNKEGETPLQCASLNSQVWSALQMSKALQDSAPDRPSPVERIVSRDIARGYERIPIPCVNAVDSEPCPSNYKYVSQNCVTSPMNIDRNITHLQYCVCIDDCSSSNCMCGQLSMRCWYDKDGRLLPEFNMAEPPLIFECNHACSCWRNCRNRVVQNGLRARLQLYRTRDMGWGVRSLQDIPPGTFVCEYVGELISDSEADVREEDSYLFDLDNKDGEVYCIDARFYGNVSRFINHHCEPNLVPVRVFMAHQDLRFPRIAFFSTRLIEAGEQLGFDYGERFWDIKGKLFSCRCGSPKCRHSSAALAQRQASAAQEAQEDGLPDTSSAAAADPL
# Method in brief: (§1)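 Radiometric methyltransferase assays with ³H-SAM and substrate near apparent Km, compound tested at 1 and 10 μM. Methyl incorporation into biotinylated substrate read by scintillation proximity after guanidine quench; no-compound = 100%, no-enzyme = 0% activity.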
# PRDM9 = PRDM9 (Homo sapiens, UniProt Q9NQV7)
# Method in brief: as §1
# PRMT1 = PRMT1 (Homo sapiens, UniProt Q99873)
# Method in brief: as §1
# SETD8 = target: T2, SETD8 (Homo sapiens, UniProt Q9NQR1)
# T2 construct: gene KMT5A
# T2 sequence (Q9NQR1 1-393): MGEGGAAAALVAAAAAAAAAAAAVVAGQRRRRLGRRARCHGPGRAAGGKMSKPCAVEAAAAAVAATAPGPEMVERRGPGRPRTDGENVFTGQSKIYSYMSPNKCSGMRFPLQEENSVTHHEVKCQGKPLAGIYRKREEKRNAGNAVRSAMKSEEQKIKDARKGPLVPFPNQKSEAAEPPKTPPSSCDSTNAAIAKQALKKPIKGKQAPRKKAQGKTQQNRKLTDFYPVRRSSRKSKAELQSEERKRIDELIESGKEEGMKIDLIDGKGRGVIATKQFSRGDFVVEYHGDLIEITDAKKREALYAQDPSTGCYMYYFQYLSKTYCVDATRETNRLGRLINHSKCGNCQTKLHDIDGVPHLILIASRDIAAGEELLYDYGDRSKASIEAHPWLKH
# Method in brief: as §1
# SETDB1 = SETDB1 (Homo sapiens, UniProt Q15047)
# Method in brief: as §1
# SUV420H2 = target: T3, SUV420H2 (Homo sapiens, UniProt Q86Y97)
# T3 construct: gene KMT5C
# Method in brief: as §1
# Sequence of PRDM9 (Q9NQV7 whole entry): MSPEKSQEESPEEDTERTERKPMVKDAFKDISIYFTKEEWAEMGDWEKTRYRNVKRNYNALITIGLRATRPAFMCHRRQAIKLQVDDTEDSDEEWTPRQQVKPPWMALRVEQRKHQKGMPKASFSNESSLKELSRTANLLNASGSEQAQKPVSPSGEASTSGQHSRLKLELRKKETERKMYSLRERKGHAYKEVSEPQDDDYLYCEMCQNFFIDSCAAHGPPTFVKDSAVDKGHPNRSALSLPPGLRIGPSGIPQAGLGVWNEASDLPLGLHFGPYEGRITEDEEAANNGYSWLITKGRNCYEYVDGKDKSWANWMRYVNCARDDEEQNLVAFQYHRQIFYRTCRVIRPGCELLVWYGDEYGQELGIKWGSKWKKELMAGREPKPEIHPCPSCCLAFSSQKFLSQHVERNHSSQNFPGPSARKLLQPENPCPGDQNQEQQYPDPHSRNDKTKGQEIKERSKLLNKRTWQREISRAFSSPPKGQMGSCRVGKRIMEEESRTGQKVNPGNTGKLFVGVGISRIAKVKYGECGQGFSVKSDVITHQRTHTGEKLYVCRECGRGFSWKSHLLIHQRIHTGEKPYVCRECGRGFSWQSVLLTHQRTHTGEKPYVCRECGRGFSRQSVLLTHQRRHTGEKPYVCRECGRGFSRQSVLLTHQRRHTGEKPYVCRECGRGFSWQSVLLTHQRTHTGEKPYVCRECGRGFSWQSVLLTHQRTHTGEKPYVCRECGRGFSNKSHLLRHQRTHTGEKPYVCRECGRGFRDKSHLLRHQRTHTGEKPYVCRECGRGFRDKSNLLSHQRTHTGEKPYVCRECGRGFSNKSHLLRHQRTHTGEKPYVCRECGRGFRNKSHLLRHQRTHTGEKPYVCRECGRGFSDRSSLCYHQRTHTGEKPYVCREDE
# T3 sequence (Q86Y97 whole entry): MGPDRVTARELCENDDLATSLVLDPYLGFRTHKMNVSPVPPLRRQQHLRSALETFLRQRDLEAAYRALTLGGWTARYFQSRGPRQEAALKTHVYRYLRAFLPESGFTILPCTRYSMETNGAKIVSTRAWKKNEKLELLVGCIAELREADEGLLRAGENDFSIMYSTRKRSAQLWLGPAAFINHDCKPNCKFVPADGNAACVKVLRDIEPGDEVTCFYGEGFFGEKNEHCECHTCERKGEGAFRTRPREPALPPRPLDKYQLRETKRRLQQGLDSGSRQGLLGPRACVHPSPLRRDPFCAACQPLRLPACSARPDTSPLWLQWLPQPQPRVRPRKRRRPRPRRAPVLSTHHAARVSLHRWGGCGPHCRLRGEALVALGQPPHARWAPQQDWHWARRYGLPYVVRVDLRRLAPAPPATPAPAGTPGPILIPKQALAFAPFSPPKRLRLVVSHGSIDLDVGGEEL
# Sequence of PRMT1 (Q99873 whole entry): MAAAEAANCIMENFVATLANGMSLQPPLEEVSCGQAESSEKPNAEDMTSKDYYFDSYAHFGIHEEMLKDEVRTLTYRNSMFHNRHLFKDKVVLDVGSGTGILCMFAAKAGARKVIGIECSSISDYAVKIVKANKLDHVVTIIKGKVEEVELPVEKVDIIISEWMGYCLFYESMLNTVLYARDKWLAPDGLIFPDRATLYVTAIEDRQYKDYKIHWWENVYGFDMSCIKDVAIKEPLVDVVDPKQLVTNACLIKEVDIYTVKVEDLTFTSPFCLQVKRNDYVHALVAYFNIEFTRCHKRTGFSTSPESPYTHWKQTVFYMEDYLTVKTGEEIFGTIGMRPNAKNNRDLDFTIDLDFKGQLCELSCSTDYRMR
Structure (SMILES),remaining activity at 1 µM (GLP),remaining activity at 10 µM (GLP),remaining activity at 1 µM (PRDM9),remaining activity at 10 µM (PRDM9),remaining activity at 1 µM (PRMT1),remaining activity at 10 µM (PRMT1),remaining activity at 1 µM (SETD8),remaining activity at 10 µM (SETD8),remaining activity at 1 µM (SETDB1),remaining activity at 10 µM (SETDB1),remaining activity at 1 µM (SUV420H2),remaining activity at 10 µM (SUV420H2)
CC1(C)O[C@@H]2[C@H](O1)[C@@H](CSCCCCNCc1cccc(-c3ccc(Cl)cc3)c1)O[C@H]2n1cnc2c(N)ncnc21 [SGC8158N],95%,90%,101%,98%,94%,91%,99%,100%,99%,91%,102%,101%
Nc1ncnc2c1ncn2[C@@H]1O[C@H](CSCCCCNCc2cccc(-c3ccc(Cl)cc3)c2)[C@@H](O)[C@H]1O [SGC8158],99%,95%,106%,96%,104%,67%,101%,102%,103%,99%,98%,87%

# Reference: publication PMC7224190, “Pharmacological inhibition of PRMT7 links arginine monomethylation to the cellular stress response” (Nature Communications, 2020)
